In US20250302862A1, “SMALL RNA DRUG FOR INHIBITING ACTIVITY OF CANCER CELLS” (Institute of Basic Medical Sciences Chinese Academy of …, priority 2022, published 2025):

Tests used:
Assay in all cases: Apoptosis detection (Annexin V / PI)
Type in all cases: cell-based, human
[1] = system: pancreatic cancer BXPC-3 cells; settings: 100 nmol/L, jetPRIME, 72 h
Description: (§1) 1) PANC-1 cells and BXPC-3 cells with a cell density of more than 90% in 10 cm^2 dishes were plated in 12-well plates according to the cell growth rate, and transfected after 12 h, and the groups were divided as follows: • blank control group (4 wells): 100 uL of jetPRIME Buffer per well • negative control group (NC group) and experimental group (3 wells each): 100 uL of jetPRIME Buffer was mixed well with 3 uL of jetPRIME reagent and 5 uL of small RNA for each well and let stand for 15 min, and then was added to each well at a 100 uL system (final concentration 100 nmol/L) • Note: 100 uL of nuclease-free water was added to 2 nmol of small RNA dry powder for dissolution at a storage concentration of 20 umol/L
(§2) The supernatant and cells were collected after 72 h and washed twice with pre-chilled PBS. The 4 tubes of cells in the blank control group were added respectively with: (1) 200 uL of 1× binding buffer; (2) 200 uL of 1× binding buffer and 5 uL of Annexin V stain; (3) 200 uL of 1× binding buffer and 5 uL of PI stain; (4) 200 uL of 1× binding buffer, 5 uL of Annexin V stain and 5 uL of PI stain. 200 uL of 1× binding buffer, 5 uL of Annexin V stain and 5 uL of PI stain were added to each tube of both the NC group and the experimental group. The mixture was mixed well and filtered through 300 mesh filters. The live cell population and the position of quadrant gate were selected according to the blank control group, and then the apoptosis of the NC group and the experimental group was detected.
as §1, with “mixed” for “mixed well”, “per” for “for each”

[2] = system: pancreatic cancer PANC-1 cells; settings: 100 nmol/L, jetPRIME, 72 h
Description: as §1, §2
as §1, with “mixed” for “mixed well”, “per” for “for each”

breast cancer MCF7 cells = settings: 100 nmol/L, 48 h
Description: (§3) 1) MCF-7 cells with a cell density of more than 90% in 10 cm^2 dishes were plated in 12-well plates according to the cell growth rate, and transfected after 12 h, and the groups were divided as follows: • blank control group (4 wells): 200 uL of opti-MEM per well • negative control group (NC group) and experimental group (3 wells each): • A. 100 uL of opti-MEM and 2 uL of iMax were mixed well for 5 min • B. 100 uL of opti-MEM and 5 uL of small RNA (final concentration 100 nmol/L) were mixed well • C. solution A and solution B were mixed well and let stand for 15 min, and then was added to each well at a 200 uL system • Note: 100 uL of nuclease-free water was added to 2 nmol of small RNA dry powder for dissolution at a storage concentration of 20 umol/L
as §2, with “48” for “72”, “200 uL of 1× binding buffer, 5 uL of Annexin V stain and 5 uL of PI stain were added to each tube of both the NC group and the experimental group. The mixture was mixed well and filtered through 300 mesh filters.” left out, “detected. […]” for “detected.”

[3] = system: prostate cancer PC-3 cells; settings: 100 nmol/L, 48 h
Description: as §3, with “PC-3” for “MCF-7”, “each): the system of each well was as follows” for “each):”
as §2, with “48” for “72”, “200 uL of 1× binding buffer, 5 uL of Annexin V stain and 5 uL of PI stain were added to each tube of both the NC group and the experimental group. The mixture was mixed well and filtered through 300 mesh filters.” left out

Measured: apoptosis

MDM-sRNA-163: small RNA derived from Maytenus hookeri, sequence UGACUCUAGUCCGACUUUGUGAAAUGACU (listed as RNA, chemistry not given here)
promotes: all assays above

MDM-sRNA-39: small RNA derived from Maytenus hookeri, sequence GGGAUUGUAGUUCAAUUGGUCAGAGCACC (listed as RNA, chemistry not given here)
promotes: all assays above
